This note sets out measurements from patent US20240409585A1, “MACROCYCLIC IMMUNOMODULATORS” (priority 2021, published 2024).

Bridge positions count the residues as written; N and C are the ends. Square brackets hold non-standard residues; d marks the D form. Peptide text beside a SMILES is read from it. * marks the point of attachment. ξ: configuration not given here. Phe(4-COOH) = N[C@@H](Cc1ccc(C(=O)O)cc1)C(=O)O; Bip = N[C@@H](Cc1ccc(-c2ccccc2)cc1)C(=O)O; Phe(3-Me) = Cc1cccc(C[C@H](N)C(=O)O)c1; 4Pal = N[C@@H](Cc1ccncc1)C(=O)O; 3Thi = N[C@@H](Cc1ccsc1)C(=O)O; Cha = N[C@@H](CC1CCCCC1)C(=O)O; Ile(3ξ) = CCC(C)[C@H](N)C(=O)O; Thr(3ξ) = CC(O)[C@H](N)C(=O)O; NMeNva = CCC[C@H](NC)C(=O)O; Carboxymethyl = O=C(O)C*; NMeA = CN[C@@H](C)C(=O)O; Orn = NCCC[C@H](N)C(=O)O; Dab = NCC[C@H](N)C(=O)O; Dap = NC[C@H](N)C(=O)O; Piv = CC(C)(C)C(=O)*; ξC = NC(CS)C(=O)O

For the assay, the target named is T1, PE-labeled human PD-L1-Ig binding to Jurkat cell line over-expressing human PD-1 (Jurkat-PD-1) (Homo sapiens, UniProt Q15116).
T1 construct: expressed in transfected cells; host or cells: Jurkat
T1 sequence (Q15116 25-288): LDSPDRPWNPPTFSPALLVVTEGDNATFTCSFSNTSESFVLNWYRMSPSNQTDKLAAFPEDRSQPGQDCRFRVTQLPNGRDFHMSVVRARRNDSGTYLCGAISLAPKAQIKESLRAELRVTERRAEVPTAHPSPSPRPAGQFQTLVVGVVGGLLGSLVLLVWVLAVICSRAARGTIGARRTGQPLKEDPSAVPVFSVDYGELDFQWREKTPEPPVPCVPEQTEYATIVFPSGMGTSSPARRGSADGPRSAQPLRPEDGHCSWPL
The assay is described as follows: Jurkat-PD-1 Cell Binding High-Content Screening Assay (CBA): Method 1. The conditions noted are these: Jurkat-hPD-1 cells, PE-labeled PD-L1-Ig 20 nM final; read-out: Jurkat HPDL1 PD1 IC50 (uM) (Method 1).
Consider `Cc1cccc(C[C@@H]2NC(=O)[C@H](CC(=O)O)NC(=O)[C@H](Cc3ccc(OCC(=O)O)cc3)NC(=O)[C@H](Cc3ccsc3)NC(=O)CSC[C@@H](C(=O)N[C@@H](CCN)C(N)=O)NC(=O)[C@H](C(C)O)NC(=O)[C@H](C(C)C)NC(=O)[C@H](CC3CCCCC3)NC(=O)[C@H](CCN)NC(=O)[C@@H](CC(C)C)NC(=O)[C@H](C)N(C)C(=O)[C@H](Cc3ccc(OCC(=O)O)cc3)NC(=O)[C@H](Cc3ccc(-c4ccccc4)cc3)NC(=O)[C@H](Cc3ccc(C(=O)O)cc3)NC2=O)c1` (stereo partly drawn) [Compound 2128] ({CH2CO}-[3Thi]Y(Carboxymethyl)D[Phe(3-Me)][Phe(4-COOH)][Bip]Y(Carboxymethyl)[NMeA][dL][Dab][Cha]V[Thr(3ξ)]C[Dab]-NH2; thioether N-14), for which the IC50 (commonly the concentration that inhibits the measured activity by half) is 0.01 µM.

`CC(C)C[C@@H]1NC(=O)[C@H](CCN)NC(=O)[C@@H](CC(C)C)NC(=O)[C@H](C)N(C)C(=O)[C@H](CCC(=O)O)NC(=O)[C@H](Cc2ccc(-c3ccccc3)cc2)NC(=O)[C@H](C(C)C)NC(=O)[C@H](Cc2c[nH]c3ccccc23)NC(=O)[C@H](CC(=O)O)NC(=O)[C@H](Cc2ccc(C(=O)O)cc2)NC(=O)[C@H](CC(N)=O)NC(=O)CSC[C@@H](C(=O)N[C@@H](C)C(N)=O)NC(=O)[C@H]([C@@H](C)O)NC(=O)[C@H](C(C)C)NC1=O` [Compound 1389] ({CH2CO}-N[Phe(4-COOH)]DWV[Bip]E[NMeA][dL][Dab]LVTCA-NH2; thioether N-14): the IC50 is 0.03 µM.

For `CC[C@H](C)[C@@H]1NC(=O)[C@H](Cc2ccc(-c3ccccc3)cc2)NC(=O)[C@H](C(C)C)NC(=O)[C@H](Cc2c[nH]c3ccccc23)NC(=O)[C@H](CC(=O)O)NC(=O)[C@H](Cc2ccc(O)cc2)NC(=O)[C@H](Cc2ccc(OCC(=O)O)cc2)NC(=O)CSC[C@@H](C(=O)N[C@@H](C)C(N)=O)NC(=O)[C@H]([C@@H](C)O)NC(=O)[C@H](C(C)C)NC(=O)[C@H](CC(C)C)NC(=O)[C@H](CCCNC(=N)N)NC(=O)[C@@H](CC(C)C)NC(=O)[C@H](C)N(C)C1=O` [Compound 1489] ({CH2CO}-Y(Carboxymethyl)YDWV[Bip]I[NMeA][dL]RLVTCA-NH2; thioether N-14), the IC50 is 0.04 µM.

Turning to `CCC(C)[C@@H]1NC(=O)[C@H](Cc2ccc(-c3ccccc3)cc2)NC(=O)[C@H](C(C)C)NC(=O)[C@H](Cc2c[nH]c3ccccc23)NC(=O)[C@H](CC(N)=O)NC(=O)[C@H](Cc2ccc(O)cc2)NC(=O)[C@H](CC(N)=O)NC(=O)CSCC(C(=O)NCC(N)=O)NC(=O)[C@H](C(C)O)NC(=O)[C@H](C(C)C)NC(=O)[C@H](CC2CCCCC2)NC(=O)[C@H](CC(N)=O)NC(=O)[C@@H](CC(C)C)NC(=O)[C@H](C)N(C)C1=O` (stereo partly drawn) [Compound 2066] ({CH2CO}-NYNWV[Bip][Ile(3ξ)][NMeA][dL]N[Cha]V[Thr(3ξ)][ξC]G-NH2; thioether N-14), the IC50 came out at 0.35 µM.

With `CC(C)C[C@@H]1NC(=O)[C@H](Cc2c[nH]c3ccccc23)NC(=O)[C@H](CC(=O)O)NC(=O)[C@H](Cc2ccc(O)cc2)NC(=O)[C@H](Cc2ccccc2)NC(=O)CSC[C@@H](C(=O)N[C@@H](C)C(N)=O)NC(=O)[C@H]([C@@H](C)O)NC(=O)[C@H](CN)NC(=O)[C@H](CC(C)C)NC(=O)[C@H](CC(N)=O)NC(=O)[C@@H](C)NC(=O)[C@H](C)N(C)C(=O)[C@H](C(C)C)NC(=O)[C@H](Cc2ccc(-c3ccccc3)cc2)NC1=O` [Compound 1535] ({CH2CO}-FYDWL[Bip]V[NMeA][dA]NL[Dap]TCA-NH2; thioether N-14), the IC50 was 0.36 µM.

In the case of `CC[C@H](C)[C@@H]1NC(=O)[C@H](Cc2ccc(-c3ccccc3)cc2)NC(=O)[C@H](C(C)C)NC(=O)[C@H](Cc2c[nH]c3ccccc23)NC(=O)[C@H](CC(=O)O)NC(=O)[C@H](Cc2ccc(O)cc2)NC(=O)[C@H](CC(C)C)NC(=O)CSC[C@@H](C(=O)N[C@@H](C)C(N)=O)NC(=O)[C@H]([C@@H](C)O)NC(=O)[C@H](C(C)C)NC(=O)[C@H](CC(C)C)NC(=O)[C@H](CCN)NC(=O)[C@@H](CC(C)C)NC(=O)[C@H](C)N(C)C1=O` [Compound 1392] ({CH2CO}-LYDWV[Bip]I[NMeA][dL][Dab]LVTCA-NH2; thioether N-14), the IC50 was found to be 0.04 µM.

Consider `Cc1cccc(C[C@@H]2NC(=O)[C@H](CC(=O)O)NC(=O)[C@H](Cc3ccc(OCC(=O)O)cc3)NC(=O)[C@H](CN)NC(=O)CSC[C@@H](C(=O)N[C@@H](CCNC(=O)C(C)(C)C)C(N)=O)NC(=O)[C@H]([C@@H](C)O)NC(=O)[C@H](C(C)C)NC(=O)[C@H](CC3CCCCC3)NC(=O)[C@H](CCN)NC(=O)[C@@H](CC(C)C)NC(=O)[C@H](C)N(C)C(=O)[C@H](Cc3ccc(OCC(=O)O)cc3)NC(=O)[C@H](Cc3ccc(-c4ccccc4)cc3)NC(=O)[C@H](Cc3ccc(OCC(=O)O)cc3)NC2=O)c1` [Compound 1866] ({CH2CO}-[Dap]Y(Carboxymethyl)D[Phe(3-Me)]Y(Carboxymethyl)[Bip]Y(Carboxymethyl)[NMeA][dL][Dab][Cha]VTC[Dab](Piv)-NH2; thioether N-14), for which the IC50 amounted to 0.05 µM.

In the case of `Cc1cccc(C[C@@H]2NC(=O)[C@H](CC(=O)O)NC(=O)[C@H](Cc3ccc(OCC(=O)O)cc3)NC(=O)[C@H]([C@@H](C)O)NC(=O)CSC[C@@H](C(N)=O)NC(=O)[C@H](CCCN)NC(=O)[C@H](C(C)C)NC(=O)[C@H](CC3CCCCC3)NC(=O)[C@H](CC(N)=O)NC(=O)[C@@H](CC(C)C)NC(=O)[C@H](C)N(C)C(=O)[C@H](Cc3ccc(OCC(=O)O)cc3)NC(=O)[C@H](Cc3ccc(-c4ccccc4)cc3)NC(=O)[C@H](Cc3ccc(OCC(=O)O)cc3)NC2=O)c1` [Compound 1680] ({CH2CO}-TY(Carboxymethyl)D[Phe(3-Me)]Y(Carboxymethyl)[Bip]Y(Carboxymethyl)[NMeA][dL]N[Cha]V[Orn]C-NH2; thioether N-14), the IC50 came to 0.17 µM.

For the compound `CCC[C@H]1C(=O)N[C@H](CC(C)C)C(=O)N[C@@H](CCN)C(=O)N[C@@H](CC(C)C)C(=O)N[C@@H](C(C)C)C(=O)N[C@@H]([C@@H](C)O)C(=O)N[C@H](C(=O)N[C@@H](C)C(N)=O)CSCC(=O)N[C@@H](CC(N)=O)C(=O)N[C@@H](Cc2ccc(O)cc2)C(=O)N[C@@H](CC(=O)O)C(=O)N[C@@H](Cc2c[nH]c3ccccc23)C(=O)N[C@@H](C(C)C)C(=O)N[C@@H](Cc2ccc(-c3ccccc3)cc2)C(=O)N[C@@H](C(C)C)C(=O)N1C` [Compound 1369] ({CH2CO}-NYDWV[Bip]V[NMeNva][dL][Dab]LVTCA-NH2; thioether N-14), the IC50 is 0.03 µM.

`Cc1cccc(C[C@@H]2NC(=O)[C@H](CC(=O)O)NC(=O)[C@H](Cc3ccncc3)NC(=O)[C@H](Cc3ccc(OCC(=O)O)cc3)NC(=O)CSC[C@@H](C(=O)N[C@@H](CCC(=O)O)C(N)=O)NC(=O)[C@H](CO)NC(=O)[C@H](C(C)C)NC(=O)[C@H](CC(C)C)NC(=O)[C@H](CC(N)=O)NC(=O)[C@@H](CC(C)C)NC(=O)[C@H](C)N(C)C(=O)[C@H](C(C)C)NC(=O)[C@H](Cc3ccc(-c4ccccc4)cc3)NC(=O)[C@H](CC(C)C)NC2=O)c1` [Compound 1603] ({CH2CO}-Y(Carboxymethyl)[4Pal]D[Phe(3-Me)]L[Bip]V[NMeA][dL]NLVSCE-NH2; thioether N-14): the IC50 worked out at 0.01 µM.
